Where two headings read alike, the source gives them in different places.
What was measured:
Tlp3 [1] = target: Tlp3 (Campylobacter jejuni, UniProt Q0P864); assay: Glycan/small molecule arrays with Tlp3; settings: yes/no binding
Method: (§1) Glycan (>400 monosaccharides or complex glycans) and small molecule arrays containing amino acids and salts were performed as described previously by Day et al. ([67]). Briefly, 1 μg of purified recombinant protein was complexed with anti-His antibody (Cell Signaling Technology) and rabbit anti-mouse/goat anti-rabbit Alexa 555-IgG (Thermo Scientific) at a molar ratio of 1:0.5:0.25 and then incubated on the array for […] in phosphate-buffered saline (PBS). The array slides were scanned at 488/520 nm and analyzed using InnoScan 1100 with MAPIX software. All arrays were performed in triplicate with a total of 12 data points for each glycan tested; the complete data set and MIRAGE (i.e., minimum information regarding a glycomics experiment) results are shown in Tables S3 and S8.
(§2) Table S8 - Supplementary glycan microarray document based on M IRAGE guidelines. D O I:
(§3) Classification Guidelines
(§4) 1. Sample: Glycan Binding Sample
(§5) Origin: Helicobacter pylori SS1; produced as a recombinant His - tagged protein in E.
(§6) The preparation of Tlp2,3, and 4 is explained in the Materials and Methods section:
(§7) Expression and purification of the periplasmic domain of Tlp2,3, and 4.
(§8) Sample Sample is a His Tagged protein containing only the periplasmic receptor domain of the modifications full length Tlp2,3, and 4transmembrane protein.
(§9) Please see Materials and Methods: Tlps 2/3/4 bind to a range of ligands, including […]
(§10) Proteins were complexed with mouse anti- his antibody, with secondary and tertiary AlexaFluor555 antibodies (rabbit anti-mouse, goat anti-rabbit) at a molar ratio of 4:2:1.
(§11) The protein/antibody complex was incubated on ice for 10 mins prior to placing on the Assay protocol array. Arrays were performed with 1 µg of complexed protein incubated on the array for 20 min. Arrays were then washed 3 times in Array PBS (PBS + 2mM MgCl2 + 2mM CaCl2) then dried by centrifugation for 3 min at 300 x g . Scanning was performed us ing an Innopsys InnoScan 1100AL and analyzed using Mapix (Innopsys). Yes/no binding was determined by six positive replicate spots in three replicate experiments. Positive […]
(§12) Glycan Glycans in this study are listed in Table S2 and is a published library in doi:
(§13) Glycans were prepared in one of two ways for printing:
(§14) Glycan 1. Glycans (with IDs in number/letter format; e.g. 1A, 4C, 7K) were sourced modifications commercially from Dextra Laboratories, Elicityl and Carbosythn and were made into glycoamines using the protocol published in Day et al 2009 (doi:
(§15) Glycan arrays: We only use glycan arrays as a yes/no binding tool. Due to this we look only at binding that is unambiguously above background vs lack of binding above background. Average background + 3x standard deviation of the background of 20 sets of 4 spots of DMF:DMSO only spots is applied to determine if binding observed is […]
(§16) Only spots with values equal to or greater than this value were considered as binding from data of any tested slide. These values are slide […]
(§17) Data Small molecule arrays: We only use amino acid arrays as a yes/no binding tool. Due interpretation to this we look only at binding that is unambiguously above background vs lack of binding above background. Average background + 3x standard deviation of the background of 6 spots of PBS + 2% glycerol only spots is applied to determine if […]
(§18) Only spots with values equal to or greater than this value were considered as binding from data of any tested slide. These values are slide dependent. […]

WT Tlp3^LBD = assay: SPR competition assay (A-B-A inject); format: binding, Campylobacter jejuni; settings: 15 seconds after injection-B; glucose 300 µM, fucose 300 μM, malic acid 200 μM
Method: . Competition A-B-A analyses determine the specificity of the potential ligand-binding site preferences of WT Tlp3^LBD. The bound protein is saturated with the first analyte (A), followed by the introduction of a second analyte (B); the assay is designed to show whether a cumulative response is observed after the second analyte (B) is added. A cumulative response indicates two independent binding sites, whereas the lack of a cumulative response indicates a single site where ligands compete for binding, i.e., when analyte A occupies a ligand binding site, analyte B cannot bind. […] All response data were normalized to a 100-Da molecular weight for each analyte, allowing direct comparison of the responses. Both actual RU values and theoretical values are recorded for comparison.
Figure S6. […] A) Injections are […]
at 300 μM for 60 seconds). Final responses units (RU) of injections are recorded (indicated by dashed vertical […]
81 at 15 s econds after injection- B and l fu cose […]
and fucose were compet ed was 4.4 RU ± 0.46. As this value sits be low 5 RU, it indicates direct competition for […]
Final respons es units (RU) of injections ar e re cor ded (indicated […]
As this value sits between
5.07- 13.5 RU, it indicates direct competition for the same site with glucos e replacing some of the bound malic acid during the 60 second injection- B.

Tlp4 [2] = target: Tlp4 (Campylobacter jejuni, UniProt Q0PBP3); format: binding; settings: yes/no binding
Sequence of Tlp4 (Campylobacter jejuni, UniProt Q0PBP3) (Q0PBP3 entry or part of it): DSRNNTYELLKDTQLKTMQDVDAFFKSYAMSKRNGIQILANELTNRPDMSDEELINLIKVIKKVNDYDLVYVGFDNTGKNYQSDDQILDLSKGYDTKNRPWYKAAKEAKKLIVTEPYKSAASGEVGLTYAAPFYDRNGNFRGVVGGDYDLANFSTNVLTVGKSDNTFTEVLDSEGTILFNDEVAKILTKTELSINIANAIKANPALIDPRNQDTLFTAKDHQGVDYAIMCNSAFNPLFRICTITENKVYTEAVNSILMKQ
Method: as §1, §2, §3, §4, §5, §6, §7, §8, §9, §10, §11, §12, §13, §14, §15, §16, §17, §18

Tlp2 [3] = target: Tlp2 (Campylobacter jejuni, UniProt Q0PBZ3); format: binding; settings: yes/no binding
Sequence of Tlp2 (Campylobacter jejuni, UniProt Q0PBZ3) (Q0PBZ3 entry or part of it): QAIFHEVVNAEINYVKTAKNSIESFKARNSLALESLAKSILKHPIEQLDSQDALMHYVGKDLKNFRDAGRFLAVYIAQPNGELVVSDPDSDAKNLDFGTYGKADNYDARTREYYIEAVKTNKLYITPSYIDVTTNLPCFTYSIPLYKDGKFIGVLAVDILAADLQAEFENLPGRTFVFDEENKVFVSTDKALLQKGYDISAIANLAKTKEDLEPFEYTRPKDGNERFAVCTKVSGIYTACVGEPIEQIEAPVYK
Method: as §1, §2, §3, §4, §5, §6, §7, §8, §9, §10, §11, §12, §13, §14, §15, §16, §17, §18

Δtlp2,4 mutant = format: cell-based; settings: P < 0.05
Δtlp3,4 mutant = format: cell-based
Δtlp2,3 mutant = format: cell-based; settings: P < 0.05
Δtlp2,3,4 triple mutant = format: cell-based; settings: P < 0.05
Tlp3 [4] = format: cell-based, C. jejuni 11168-O; settings: for Tlp3 CR (chemoresponse): chemotaxis of mutant compared to WT strain
Method: (§19) The biological relevance of the binding specificities of the Tlp2,3,4 cluster was assessed by examining chemotactic responses of C. jejuni 11168-O tlp2, tlp3, and tlp4 wild-type (WT) and mutant strains using a nutrient-depleted chemotaxis assay. All ligands, with the exception of lysine and cysteine, interacted with Tlp2 and Tlp4 as attractants (Table 1), showing an ~1- to ~2-log decrease (P < 0.05) in migration toward the ligand compared to the WT strain.
(§20) Chemotaxis assays—the nutrient-depleted chemotaxis assay and the modified hard agar plug assay (tHAP)—were performed as previously described ([11], [34]). The chemotactic responses of all isogenic strains were compared to that of the C. jejuni 11168-O wild-type strain to distinguish between chemoattractants and chemorepellents. For the nutrient-depleted chemotaxis and modified hard agar plug (tHAP) assays, all differences were calculated as changes on a log10 scale. Controls were provided by using nonmotile (C. jejuni 81116 flaAB) and nonchemotactic (C. jejuni NCTC 11168 cheY) mutants ([69]) and mucin as negative and positive controls ([10]).

Tlp2 [5] = format: cell-based, C. jejuni 11168-O; settings: for chemotactic response via Tlp2: nutrient-depleted chemotaxis assay
Method: as §19, §20

Tlp4 [6] = format: cell-based, C. jejuni 11168-O; settings: nutrient-depleted chemotaxis assay
Method: as §19, §20

Tlp3 [7] = tested on: Tlp3; set-up: method as in PMID 24391495; settings: cited from earlier work

Sequence of Tlp3 (Campylobacter jejuni, UniProt Q0P864) (Q0P864 entry or part of it): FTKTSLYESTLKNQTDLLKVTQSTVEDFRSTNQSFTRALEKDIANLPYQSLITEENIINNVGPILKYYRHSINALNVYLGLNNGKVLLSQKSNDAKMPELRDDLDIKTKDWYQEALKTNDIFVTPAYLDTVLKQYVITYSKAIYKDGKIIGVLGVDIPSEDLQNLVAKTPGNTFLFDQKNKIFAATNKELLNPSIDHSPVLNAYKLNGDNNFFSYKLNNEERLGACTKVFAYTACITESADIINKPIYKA

Compound	binding to Tlp3 on glycan/small molecule array (Tlp3 [1])	SPR response of single analyte (WT Tlp3^LBD) [RU]	binding to Tlp4 on glycan/small molecule array (Tlp4 [2])	binding to Tlp2 on glycan/small molecule array (Tlp2 [3])	cell migration toward ligand decreased, Δtlp2,4 mutant (Δtlp2,4 mutant) [log]	cell migration toward ligand, Δtlp3,4 mutant (Δtlp3,4 mutant)	cell migration toward ligand increased, Δtlp2,3 mutant (Δtlp2,3 mutant) [log]	increase in cell migration, Δtlp2,3,4 triple mutant (Δtlp2,3,4 triple mutant) [log]	Tlp3 CR (chemoresponse) (Tlp3 [4])	Tlp2 CR (chemoresponse) (Tlp2 [5]; chemotaxis of mutant compared to WT strain)	increase in migration (Tlp2) (Tlp2 [5]; compared to the WT strain, P < 0.05) [log]	chemotactic response via Tlp2 (Tlp2 [5])	chemotactic response via Tlp4 (Tlp4 [6])	chemotactic response via Tlp3 (Tlp3 [7])	chemotactic response via Tlp3 (Tlp3 [4]; nutrient-depleted chemotaxis assay)
C[C@H](O)[C@@H](O)[C@@H](O)[C@H](O)C=O [Fucose]	interacted	9.86	interacted	interacted											
NCCCC[C@H](N)C(=O)O [Lysine]	bind specifically		bound	bound	1.1	no change in migration	1.8	1.5	R	R	1.4	repellent	attractant	repellent	
CC(=O)N[C@H]1[C@H]([C@H](O)[C@H](O)CO)OC(O)(C(=O)O)C[C@@H]1O (stereo partly drawn) [Sialic acid]	interacted		interacted	interacted					R			attractants	attractants		repellents
